Measured values published in ChEMBL document CHEMBL1137927, “Initial structure-activity relationships of lysophosphatidic acid receptor antagonists: discovery of a high-affinity LPA1/LPA3 receptor antagonist” (Bioorg Med Chem Lett, 2004).

Tests used:
[1] = target: T1, Lysophosphatidic acid receptor 3 (Homo sapiens, UniProt Q9UBY5); assay: In vitro antagonism of LPA-evoked [35S]GTP-gamma-S binding to lysophosphatidic acid receptor 3 in HEK293T cell lines; format: functional, cell-based, HEK-293T
T1 sequence (Q9UBY5 whole entry): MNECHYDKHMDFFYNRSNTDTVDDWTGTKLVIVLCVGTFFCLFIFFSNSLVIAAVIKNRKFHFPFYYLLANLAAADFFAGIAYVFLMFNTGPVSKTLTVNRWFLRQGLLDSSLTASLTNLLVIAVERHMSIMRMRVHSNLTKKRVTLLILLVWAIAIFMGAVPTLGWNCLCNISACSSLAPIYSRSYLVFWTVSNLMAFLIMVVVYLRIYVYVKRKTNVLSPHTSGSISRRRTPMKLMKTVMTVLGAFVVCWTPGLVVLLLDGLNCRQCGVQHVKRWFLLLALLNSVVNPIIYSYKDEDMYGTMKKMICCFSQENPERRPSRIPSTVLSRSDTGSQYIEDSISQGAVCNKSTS

[2] = target: Lysophosphatidic acid receptor 1 (Homo sapiens, UniProt Q92633); assay: In vitro ability to antagonize LPA-evoked [35S]GTP-gamma-S binding to lysophosphatidic acid receptor 1 in HEK293T cell lines; format: functional, cell-based, HEK-293T
Chain of Lysophosphatidic acid receptor 1 (Q92633 whole entry): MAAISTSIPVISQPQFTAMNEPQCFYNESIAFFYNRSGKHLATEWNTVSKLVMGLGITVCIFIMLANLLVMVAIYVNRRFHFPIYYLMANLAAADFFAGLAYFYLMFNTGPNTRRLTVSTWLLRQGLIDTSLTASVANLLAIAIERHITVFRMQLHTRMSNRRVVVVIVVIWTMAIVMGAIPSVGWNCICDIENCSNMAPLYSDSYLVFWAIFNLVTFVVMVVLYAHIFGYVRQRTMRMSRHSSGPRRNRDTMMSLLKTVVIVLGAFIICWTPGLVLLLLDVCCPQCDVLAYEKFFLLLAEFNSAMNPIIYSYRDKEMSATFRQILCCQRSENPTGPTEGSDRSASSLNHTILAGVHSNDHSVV

IC50 [1] [µM] | IC50 [2] [µM] | Ki [2] [µM] | Compound
6.45 | 5.21 | 0.137 | CCCCCCCC/C=C\CCCCCCCC(=O)NC(COP(=O)(O)O)Cc1ccc(OCc2ccccc2)cc1 (stereo not drawn)
0.427 | > 10 |  | CCCCCCCC/C=C\CCCCCCCC(=O)N[C@@H](COP(=O)(O)O)Cc1ccc(OC(=O)c2cc(OC)c(OC)c(OC)c2)cc1
2.31 | 2.93 | 0.134 | CCCCCCCC/C=C\CCCCCCCC(=O)N[C@@H](COP(=O)(O)O)Cc1ccc(OC2Cc3ccccc3C2)cc1
> 10 | > 10 |  | CCCCCCCC/C=C\CCCCCCCC(=O)N[C@H](COP(=O)(O)O)Cc1ccc(OC(=O)c2ccc(CCCCC)cc2)cc1
2.63 | 7 | 0.073 | CCCCCCCC/C=C\CCCCCCCC(=O)N[C@@H](COP(=O)(O)O)Cc1ccc(Oc2cc3ccccc3[nH]2)cc1
0.94 | 0.604 | 0.156 | CCCCCCCC/C=C\CCCCCCCC(=O)N[C@H](COP(=O)(O)O)Cc1ccc(OCc2ccccn2)cc1
7.22 | > 10 |  | CCCCCCCCCCCCCCCC(=O)NC(COP(=O)(O)O)Cc1ccc(OCc2cccc(OC)c2)cc1 (stereo not drawn)
> 10 | 2.49 |  | CCCCCCCC/C=C\CCCCCCCC(=O)N[C@@H](COP(=O)(O)O)Cc1ccc(OCc2ccccc2)cc1
> 10 | > 10 |  | CCCCCCCC/C=C\CCCCCCCC(=O)N[C@H](COP(=O)(O)O)Cc1ccc(OCc2ccccc2)cc1
> 10 | > 10 |  | C#CCOc1ccc(C[C@@H](COP(=O)(O)O)NC(=O)CCCCCCC/C=C\CCCCCCCC)cc1
4.03 | > 10 |  | CCCCCCCC/C=C\CCCCCCCC(=O)N[C@@H](COP(=O)(O)O)Cc1ccc(OCC2CCCCC2)cc1
0.351 | > 10 |  | CCCCCCCC/C=C\CCCCCCCC(=O)N[C@@H](COP(=O)(O)O)Cc1ccc(OCCC(C)C)cc1
6.93 | > 10 |  | CCCCCCCC/C=C\CCCCCCCC(=O)N[C@H](COP(=O)(O)O)Cc1ccc(OCC)cc1
> 10 | > 10 |  | C=CCOc1ccc(C[C@@H](COP(=O)(O)O)NC(=O)CCCCCCC/C=C\CCCCCCCC)cc1
> 10 | 9.03 |  | CCCCCCCCCCCCCC(=O)NC(COP(=O)(O)O)Cc1ccc(OCc2ccccc2)cc1 (stereo not drawn)
0.175 | 0.109 | 0.018 | CCCCCCCC/C=C\CCCCCCCC(=O)N[C@@H](COP(=O)(O)O)Cc1ccc(OCc2ccccn2)cc1
6.84 | > 10 |  | CCCCCCCCCCCCCCCC(=O)NC(COP(=O)(O)O)Cc1ccc(OCc2ccccc2)cc1 (stereo not drawn)
0.642 | 5.66 | 0.642 | CCCCCCCC/C=C\CCCCCCCC(=O)N[C@H](COP(=O)(O)O)Cc1ccc(OCc2cccc(OC)c2)cc1
0.0356 | 1.07 | 0.034 | CCCCCCCC/C=C\CCCCCCCC(=O)N[C@@H](COP(=O)(O)O)Cc1ccc(OCc2cccc(OC)c2)cc1
> 10 | 4.25 |  | CCCCC/C=C\C/C=C\CCCCCCCC(=O)NC(COP(=O)(O)O)Cc1ccc(OCc2ccccc2)cc1 (stereo not drawn)
> 10 | 7.97 |  | CCCCCCCC(=O)NC(COP(=O)(O)O)Cc1ccc(OCc2ccccc2)cc1 (stereo not drawn)
9.26 | > 10 |  | CCCCCCCC/C=C\CCCCCCCC(=O)N[C@H](COP(=O)(O)O)Cc1ccc(Oc2cc3ccccc3[nH]2)cc1
5.92 | > 10 |  | CCCCCCCC/C=C\CCCCCCCC(=O)N[C@H](COP(=O)(O)O)Cc1ccc(OCCC(C)C)cc1
> 10 | > 10 |  | CCCCCCCCCCCCCCCCCC(=O)N[C@@H](COP(=O)(O)O)Cc1ccc(OC2O[C@H](CO)[C@@H](O)[C@H](O)[C@H]2O)cc1 (stereo partly drawn)
> 10 | > 10 |  | CCCCCCCC/C=C\CCCCCCCC(=O)N[C@@H](COP(=O)(O)O)Cc1ccc(OC)cc1
3.28 | > 10 |  | C#CCCCCOc1ccc(C[C@H](COP(=O)(O)O)NC(=O)CCCCCCC/C=C\CCCCCCCC)cc1
6.41 | > 10 |  | CCCCCCCC/C=C\CCCCCCCC(=O)N[C@@H](COP(=O)(O)O)Cc1ccc(OCC)cc1
> 10 | > 10 |  | CCCCCCCC/C=C\CCCCCCCC(=O)N[C@H](COP(=O)(O)O)Cc1ccc(OC(=O)c2ccc(N)cc2)cc1
